For 20 compounds, EC50 results are on record in US10736883B2, “Triazole furan compounds as agonists of the APJ receptor” (AMGEN INC., priority 2016, dated 2020).

As usually defined, the EC50 is the midpoint of the concentration-response curve.

For the assay, the target named is APJ receptor (Homo sapiens (Human), UniProt P35414). The experiment in a line: [35S]GTPγS binding assay on membranes from CHO cells stably expressing human APJ receptor. The assay is classed as biochemical. The settings on record: membranes of CHO cells stably expressing human APJ receptor, means of several independent experiments, read-out: Activity hAPJ SPA EC50 IP. The method in brief: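 EC50 values were obtained by non-linear regression of [35S]GTPγS (0.2 nM) binding after 90 min at RT, with nonspecific binding defined by 100 μM GTPγS. Reactions used human APJ–expressing CHO cell membranes on WGA PS beads in HEPES pH 7.5 buffer with 5 mM MgCl2, 200 mM NaCl, 3 μM GDP and 0.1% BSA.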
Chain of APJ receptor (P35414 whole entry): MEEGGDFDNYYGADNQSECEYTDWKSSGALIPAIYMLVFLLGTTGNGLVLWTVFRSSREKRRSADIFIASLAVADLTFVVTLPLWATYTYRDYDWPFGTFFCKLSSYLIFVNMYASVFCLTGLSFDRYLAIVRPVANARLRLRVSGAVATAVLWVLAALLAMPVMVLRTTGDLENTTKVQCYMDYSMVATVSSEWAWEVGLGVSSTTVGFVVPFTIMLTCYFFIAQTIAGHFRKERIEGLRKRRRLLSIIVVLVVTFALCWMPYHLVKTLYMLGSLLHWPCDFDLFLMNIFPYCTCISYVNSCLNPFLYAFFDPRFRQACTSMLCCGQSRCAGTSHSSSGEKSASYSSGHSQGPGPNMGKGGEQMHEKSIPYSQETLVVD
(In general: Binding of GTPγS marks nucleotide exchange on a G protein.)

Regarding `COc1cccc(OC)c1-n1c(NS(=O)(=O)C[C@H](O)c2ccc(C#N)cn2)nnc1-c1ccc(C)o1` (single isomer, unassigned) [Example 58.0, (2R)-2-(5-cyano-2-pyridinyl)-N-(4-(2,6-dimethoxyphenyl)-5-(5-methyl-2-furanyl)-4H-1,2,4-triazol-3-yl)-2-hydroxyethanesulfonamide or (2S)-2-(5-cyano-2-pyridinyl)-N-(4-(2,6-dimethoxyphenyl)-5-(5-methyl-2-furanyl)-4H-1,2,4-triazol-3-yl)-2-hydroxyethanesulfonamide], the 50% effective concentration (EC50) was found to be 0.13 nM.
Consider `COc1cccc(OC)c1-n1c(NS(=O)(=O)CCc2ccc(F)cc2C#N)nnc1-c1ccc(C)o1` [Example 119.0, 2-(2-Cyano-4-fluorophenyl)-N-(4-(2,6-dimethoxyphenyl)-5-(5-methylfuran-2-yl)-4H-1,2,4-triazol-3-yl)ethanesulfonamide], for which the EC50 is 0.15 nM.
For the compound `COc1cccc(OC)c1-n1c(NS(=O)(=O)[C@@H]2C[C@@H](c3ccc(F)cc3)CN(C(C)=O)C2)nnc1-c1ccc(C)o1` (single isomer, unassigned) [Example 171.0, (3R,5S)-1-Acetyl-N-(4-(2,6-dimethoxyphenyl)-5-(5-methyl-2-furanyl)-4H-1,2,4-triazol-3-yl)-5-(4-fluorophenyl)-3-piperidinesulfonamide or (3S,5R)-1-acetyl-N-(4-(2,6-dimethoxyphenyl)-5-(5-methyl-2-furanyl)-4H-1,2,4-triazol-3-yl)-5-(4-fluorophenyl)-3-piperidinesulfonamide], the EC50 came out at 1.2 nM.
For `COCC(COC)n1c(NS(=O)(=O)[C@@H](C)[C@@H](OC(C)C)c2ncc(Cl)cn2)nnc1-c1ccc(C)o1` [Example 392.0, (1S,2S)-1-(5-chloro-2-pyrimidinyl)-N-(4-(1,3-dimethoxy-2-propanyl)-5-(5-methyl-2-furanyl)-4H-1,2,4-triazol-3-yl)-1-(2-propanyloxy)-2-propanesulfonamide], the concentration for a half-maximal effect (EC50) is 0.55 nM.
The value for `COc1cccc(OC)c1-n1c(NS(=O)(=O)[C@@H](C)[C@H](O)c2ccc(Cl)cc2S(C)(=O)=O)nnc1-c1ccc(C)o1` (single isomer, unassigned) [Example 157.0, (1R,2S)-1-(4-Chloro-2-(methylsulfonyl)phenyl)-N-(4-(2,6-dimethoxyphenyl)-5-(5-methyl-2-furanyl)-4H-1,2,4-triazol-3-yl)-1-hydroxy-2-propanesulfonamide or (1S,2R)-1-(4-chloro-2-(methylsulfonyl)phenyl)-N-(4-(2,6-dimethoxyphenyl)-5-(5-methyl-2-furanyl)-4H-1,2,4-triazol-3-yl)-1-hydroxy-2-propanesulfonamide] was 0.39 nM; that for `COc1cccc(OC)c1-n1c(NS(=O)(=O)[C@@H]2CCC[C@H]2c2ncc(F)cn2)nnc1-c1ccco1` (single isomer, unassigned) [Example 104.0, (1R,2S)—N-(4-(2,6-Dimethoxyphenyl)-5-(2-furanyl)-4H-1,2,4-triazol-3-yl)-2-(5-fluoro-2-pyrimidinyl)cyclopentanesulfonamide or (1S,2R)—N-(4-(2,6-dimethoxyphenyl)-5-(2-furanyl)-4H-1,2,4-triazol-3-yl)-2-(5-fluoro-2-pyrimidinyl)cyclopentanesulfonamide] was 22 nM; that for `CO[C@H](c1ncc(Cl)cn1)[C@H](C)S(=O)(=O)Nc1nnc(-c2ccc(C)o2)n1C(C)C` [Example 388.0, (1R,2S)-1-(5-chloropyrimidin-2-yl)-N-(4-isopropyl-5-(5-methylfuran-2-yl)-4H-1,2,4-triazol-3-yl)-1-methoxypropane-2-sulfonamide] was 37 nM.
Next, `COc1cccc(OC)c1-n1c(NS(=O)(=O)[C@H](C)[C@@H](O)c2coc(C)n2)nnc1-c1ccc(C)o1` (racemic) [Example 284.0, (1R,2S)—N-(4-(2,6-Dimethoxyphenyl)-5-(5-methyl-2-furanyl)-4H-1,2,4-triazol-3-yl)-1-hydroxy-1-(2-methyl-1,3-oxazol-4-yl)-2-propanesulfonamide and (1S,2R)—N-(4-(2,6-dimethoxyphenyl)-5-(5-methyl-2-furanyl)-4H-1,2,4-triazol-3-yl)-1-hydroxy-1-(2-methyl-1,3-oxazol-4-yl)-2-propanesulfonamide]: 1.6 nM; `COc1cccc(OC)c1-n1c(NS(=O)(=O)[C@@H](C)[C@H](O)c2coc(C)n2)nnc1-c1ccc(C)o1` (single isomer, unassigned) [Example 275.0, (1R,2S)—N-(4-(2,6-Dimethoxyphenyl)-5-(5-methyl-2-furanyl)-4H-1,2,4-triazol-3-yl)-1-hydroxy-1-(2-methyl-1,3-oxazol-4-yl)-2-propanesulfonamide or (1S,2R)—N-(4-(2,6-dimethoxyphenyl)-5-(5-methyl-2-furanyl)-4H-1,2,4-triazol-3-yl)-1-hydroxy-1-(2-methyl-1,3-oxazol-4-yl)-2-propanesulfonamide]: 0.85 nM; `CC[C@H](Cc1ncc(F)cn1)S(=O)(=O)Nc1nnc(-c2ccco2)n1-c1c(OC)cccc1OC` (single isomer, unassigned) [Example 136.0, (R)—N-(4-(2,6-Dimethoxyphenyl)-5-(furan-2-yl)-4H-1,2,4-triazol-3-yl)-1-(5-fluoropyrimidin-2-yl)butane-2-sulfonamide or (S)—N-(4-(2,6-dimethoxyphenyl)-5-(furan-2-yl)-4H-1,2,4-triazol-3-yl)-1-(5-fluoropyrimidin-2-yl)butane-2-sulfonamide]: 19 nM.
For `COc1cccc(OC)c1-n1c(NS(=O)(=O)[C@@H](C)[C@](C)(N)c2ncc(F)cn2)nnc1-c1ccc(C)o1` (single isomer, unassigned) [Example 243.0], the 50% effective concentration (EC50) worked out at 0.87 nM.
Next, `[2H]C([2H])([2H])c1ccc(-c2nnc(NS(=O)(=O)[C@@H](C)[C@H](C)c3ncc(F)cn3)n2-c2c(OC)ncnc2OC)o1` [Example 395.0, (2S,3R)—N-(4-(4,6-Dimethoxy-5-pyrimidinyl)-5-(5-trideuteromethyl-2-furanyl)-4H-1,2,4-triazol-3-yl)-3-(5-fluoro-2-pyrimidinyl)-2-butanesulfonamide]: 0.26 nM; `COc1cccc(OC)c1-n1c(NS(=O)(=O)[C@H](C)[C@@H](O)c2cn(C)cn2)nnc1-c1ccc(C)o1` (racemic) [Example 283.0, (1R,2S)—N-(4-(2,6-Dimethoxyphenyl)-5-(5-methyl-2-furanyl)-4H-1,2,4-triazol-3-yl)-1-hydroxy-1-(1-methyl-1H-imidazol-4-yl)-2-propanesulfonamide and (1S,2R)—N-(4-(2,6-dimethoxyphenyl)-5-(5-methyl-2-furanyl)-4H-1,2,4-triazol-3-yl)-1-hydroxy-1-(1-methyl-1H-imidazol-4-yl)-2-propanesulfonamide]: 1.4 nM; `COc1cccc(OC)c1-n1c(NS(=O)(=O)[C@@H](C)[C@H](O)c2cccc3ccnn23)nnc1-c1ccc(C)o1` (single isomer, unassigned) [Example 267.0, (1R,2S)—N-(4-(2,6-Dimethoxyphenyl)-5-(5-methyl-2-furanyl)-4H-1,2,4-triazol-3-yl)-1-hydroxy-1-pyrazolo[1,5-a]pyridin-7-yl-2-propanesulfonamide or (1S,2R)—N-(4-(2,6-dimethoxyphenyl)-5-(5-methyl-2-furanyl)-4H-1,2,4-triazol-3-yl)-1-hydroxy-1-pyrazolo[1,5-a]pyridin-7-yl-2-propanesulfonamide]: 0.43 nM.
On to `COc1cccc(OC)c1-n1c(NS(=O)(=O)[C@H](C)[C@@H](O)c2ccc(C#N)c(C)n2)nnc1-c1ccc(C)o1` (racemic) [Example 88.0], for which the EC50 was determined as 0.51 nM.
Next, `C[C@@H](Cc1ncc(F)cn1)S(=O)(=O)Nc1nnc(-c2ccco2)n1C1CCCCC1.C[C@H](Cc1ncc(F)cn1)S(=O)(=O)Nc1nnc(-c2ccco2)n1C1CCCCC1` (mixture of isomers) [Example 313.0, (2R)—N-(4-Cyclohexyl-5-(2-furanyl)-4H-1,2,4-triazol-3-yl)-1-(5-fluoro-2-pyrimidinyl)-2-propanesulfonamide and (2S)—N-(4-cyclohexyl-5-(2-furanyl)-4H-1,2,4-triazol-3-yl)-1-(5-fluoro-2-pyrimidinyl)-2-propanesulfonamide]: 230 nM; `COc1cccc(OC)c1-n1c(NS(=O)(=O)CCN2C(=O)N(C)CC[C@@H]2C)nnc1-c1ccc(C)o1` (single isomer, unassigned) [Example 164.0, N-(4-(2,6-Dimethoxyphenyl)-5-(5-methyl-2-furanyl)-4H-1,2,4-triazol-3-yl)-2-((6S)-3,6-dimethyl-2-oxotetrahydro-1(2H)-pyrimidinyl)ethanesulfonamide or N-(4-(2,6-dimethoxyphenyl)-5-(5-methyl-2-furanyl)-4H-1,2,4-triazol-3-yl)-2-((6R)-3,6-dimethyl-2-oxotetrahydro-1(2H)-pyrimidinyl)ethanesulfonamide]: 0.74 nM; `COc1cccc(OC)c1-n1c(NS(=O)(=O)C[C@@](C)(O)c2ncc(F)cn2)nnc1-c1ccc(C)o1` (single isomer, unassigned) [Example 249.0]: 2.5 nM.
Next, `COc1cccc(OC)c1-n1c(NS(=O)(=O)[C@H](C)[C@@H](OC)c2ccc(C#N)cc2C#N)nnc1-c1ccc(C)o1` (single isomer, unassigned) [Example 143.0, (1S,2R)-1-(2,4-Dicyanophenyl)-N-(4-(2,6-dimethoxyphenyl)-5-(5-methyl-2-furanyl)-4H-1,2,4-triazol-3-yl)-1-methoxy-2-propanesulfonamide or (1R,2S)-1-(2,4-dicyanophenyl)-N-(4-(2,6-dimethoxyphenyl)-5-(5-methyl-2-furanyl)-4H-1,2,4-triazol-3-yl)-1-methoxy-2-propanesulfonamide]: 0.072 nM; `COc1cccc(OC)c1-n1c(NS(=O)(=O)[C@H](C)[C@H](O)c2ccc(F)cc2CO)nnc1-c1ccc(C)o1` (single isomer, unassigned) [Example 73.0]: 0.49 nM.
